According to ChEMBL document CHEMBL3301458, “MMV Malaria Box hERG screening”:
Activity calls are given as the source filed them. How the calls were made is not given here.

How the values were obtained:
[1] = target: T1, hERG (Kv11.1, KCNH2) (Homo sapiens, UniProt Q12809); assay: in vitro
Description: MMV: Malaria Box compounds were tested for inhibition of the human ether a go-go related gene (hERG), Kv11.1 channel, using IonWorks 384-well patch clamp electrophysiology at 1.1uM (3 independent assay plates up to 12 cells per concentration).

[2] = target: T1, hERG (Kv11.1, KCNH2); assay: in vitro; remark: listed apart in the source
Description: MMV: Malaria Box compounds were tested for inhibition of the human ether a go-go related gene (hERG), Kv11.1 channel, using IonWorks 384-well patch clamp electrophysiology at 11.1uM (3 independent assay plates up to 12 cells per concentration).

T1 sequence (Q12809 whole entry): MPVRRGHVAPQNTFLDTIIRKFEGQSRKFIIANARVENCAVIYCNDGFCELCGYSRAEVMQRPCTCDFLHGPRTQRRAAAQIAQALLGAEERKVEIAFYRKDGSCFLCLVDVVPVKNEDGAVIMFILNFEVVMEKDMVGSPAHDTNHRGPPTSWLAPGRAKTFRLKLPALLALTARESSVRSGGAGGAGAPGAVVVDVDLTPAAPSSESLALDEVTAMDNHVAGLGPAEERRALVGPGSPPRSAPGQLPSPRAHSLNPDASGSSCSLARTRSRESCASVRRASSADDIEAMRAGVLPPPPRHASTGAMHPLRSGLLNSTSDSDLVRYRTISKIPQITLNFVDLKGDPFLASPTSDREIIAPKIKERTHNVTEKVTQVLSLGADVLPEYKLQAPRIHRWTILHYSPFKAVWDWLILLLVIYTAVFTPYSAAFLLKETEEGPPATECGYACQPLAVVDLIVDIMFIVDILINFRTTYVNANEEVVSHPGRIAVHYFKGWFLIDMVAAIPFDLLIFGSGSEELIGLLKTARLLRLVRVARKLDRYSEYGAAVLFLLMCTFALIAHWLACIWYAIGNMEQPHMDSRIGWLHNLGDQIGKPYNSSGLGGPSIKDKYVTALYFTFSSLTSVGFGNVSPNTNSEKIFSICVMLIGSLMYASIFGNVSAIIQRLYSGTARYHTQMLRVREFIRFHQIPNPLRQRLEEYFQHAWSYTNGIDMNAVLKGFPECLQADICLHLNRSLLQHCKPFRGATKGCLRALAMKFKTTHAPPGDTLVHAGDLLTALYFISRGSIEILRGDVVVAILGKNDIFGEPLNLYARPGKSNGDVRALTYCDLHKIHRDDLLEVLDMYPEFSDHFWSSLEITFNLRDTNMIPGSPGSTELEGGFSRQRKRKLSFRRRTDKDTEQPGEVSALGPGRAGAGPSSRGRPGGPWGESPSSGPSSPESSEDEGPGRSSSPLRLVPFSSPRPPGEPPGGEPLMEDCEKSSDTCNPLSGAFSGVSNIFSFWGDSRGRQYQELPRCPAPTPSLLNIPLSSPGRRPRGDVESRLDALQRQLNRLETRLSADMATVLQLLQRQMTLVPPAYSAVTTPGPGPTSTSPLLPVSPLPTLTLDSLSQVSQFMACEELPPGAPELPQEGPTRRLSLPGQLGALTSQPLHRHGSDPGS

Compound	inhibition at 1.1 µM [1] [%]	inhibition at 11.1 µM [2]
CCOC(=O)c1cnc2c(C)cccc2c1Nc1ccc(C(C)=O)cc1	6	39%
c1ccc2cc3c(Nc4ccc(N5CCOCC5)cc4)ccnc3cc2c1	38	87% (active)
COc1ccc(C2N(C)c3ccccc3N2C)cc1	-13	-5% (inactive)
OC(Cn1nnc2ccccc21)Cn1c2ccc(Br)cc2c2cc(Br)ccc21 (stereo not drawn)	21	17% (inactive)
Cc1ccc(Nc2nc(N)c3ccccc3n2)cc1Cl	5	85% (active)
CSc1ccccc1C(=O)Nc1nc(-c2ccccn2)cs1	15	39%
COc1ccc2nc(N)nc(C)c2c1	10	4% (inactive)
CN(C)c1ccc(N=Cc2ccc(N3CCOCC3)cc2)cc1	-6	-3% (inactive)
CCc1ccc(Nc2cc(C)nc3nc(C)nn23)cc1	-2	42%
CC(O)(c1ccc(Cl)cc1)C(CN1CCCCC1)c1ccccc1 (stereo not drawn)	40	84% (active)
CCN(CC)CCNc1ncnc2c1[nH]c1ccc(Cl)cc12	99	97%
COc1ccc(NC(=O)C2c3ccccc3C(=O)N(CC(C)C)C2c2cccs2)cc1Cl (stereo not drawn)	0	24% (inactive)
O=C(NCCCN1CCC(N2CCCCC2)CC1)C1=Cc2cc(Br)ccc2OC1	5	89% (active)
CCN(CC)CCCNc1ccnc2cc3ccccc3cc12	-2	23% (inactive)
Cc1ccc(C(=O)c2oc3ccc4c(C)cc(=O)oc4c3c2C)cc1	-3	7% (inactive)
O=C(Cc1ccccc1)NC(c1ccc(Cl)cc1)c1c(O)ccc2ccccc12 (stereo not drawn)	-2	-1% (inactive)
COc1ccc(C2NCCc3c2[nH]c2ccccc32)cc1CN1CCN(c2ccc(F)cc2)CC1 (stereo not drawn)	18	113% (active)

Compound	inhibition at 1.1 µM [1] [%]	inhibition at 11.1 µM [2]
Cc1cc(N(C)C)nc(Nc2ccc(NC(=O)Nc3ccccc3)cc2)n1	2	-1% (inactive)
CC(C)CNC(=O)c1c(N)n(CCc2ccccc2F)c2nc3ccccc3nc12	17	-11% (inactive)
CCCCCn1c(=N)n(CC(O)COc2cccc(C)c2)c2ccccc21 (stereo not drawn)	59	101%
CC(C)CCNCC(O)Cn1c2ccccc2c2ccccc21 (stereo not drawn)	2	61% (active)
CCN(CC)CCNc1ccnc2cc3ccccc3cc12	9	6% (inactive)
Cc1cc(NCCN2CCCCC2)c2ccc3ccccc3c2n1	32	95% (active)
CCOc1cc(Br)c(C(C)NC(=O)c2cccc(OC)c2)cc1OCC (stereo not drawn)	-12	2% (inactive)
OC1=C2C(=Nc3ccccc3SC2c2ccccc2)c2ccccc21 (stereo not drawn)	15	16% (inactive)
Cc1cccc(Nc2nc(N)c3ccccc3n2)c1	15	49%
Cc1ccc(C)c(Cn2c(N3CCC(C(=O)NCc4cccs4)CC3)nc3ccccc32)c1	16	84% (active)
CCOC(=O)c1cnc2c(C)cc(C)cc2c1Nc1ccc(OC)c(OC)c1	26	18% (inactive)
Cc1ccccc1OCCSc1nc2ccc(NC(=O)c3ccccc3)cc2s1	-9	2% (inactive)
Cc1cccc(N2C(=O)C3C(C2=O)C2(c4ccccc4)C(=O)C3(c3ccccc3)C(c3ccc4c(c3)OCO4)=C2c2ccc3c(c2)OCO3)c1 (stereo not drawn)	-14	2% (inactive)
CCCCCCn1c(=N)n(CC(O)COc2cccc(C)c2)c2ccccc21 (stereo not drawn)	57	111%
COc1ccc(C(=O)Nc2ccc3nc(N4CCCCC4)cc(C)c3c2)cc1OC	63	96%
CCN(CC)CCNc1ccnc2cc(Cl)ccc12	18	61% (active)
COc1ccc(OC)c(C2C3=C(CC(C)(C)CC3=O)N(c3ccc(Cl)c(Cl)c3)C3=C2C(=O)CC(C)(C)C3)c1	21	27%
